Measured values taken from patent US20250223303A1, “TRICYCLIC BORONIC ACID DERIVATIVE, AND PREPARATION METHOD THEREFOR AND APPLICATION THEREOF” (priority 2021, published 2025).

Columns and labels:
Format in all cases: biochemical
NDM-1 = molecular target: T1, NDM-1 (Klebsiella pneumoniae, UniProt C7C422); assay: Enzyme activity test (FC5 fluorescent substrate), NDM-1; conditions: enzyme 6 pM, substrate FC5 15 μM, MBL buffer
T1 construct: purchased GenScript Biotech Co., Ltd
Protocol: (§1) Compound stock solution: the compound was prepared as a 50 mM DMSO stock solution. […] After aliquoting, the compound stock solutions were stored at −20° C.
(§2) Preparation and storage of antibiotic substrate stock solution: antibiotic fluorescent substrate FC5 was synthesized internally and prepared as a 2 mM stock solution, which was stored at −20° C. after aliquoting.
(§3) Storage of β-lactamases: each […] was synthesized by GenScript Biotech Co., Ltd., and stored at −80° C. after aliquoting to avoid repeated freezing and thawing.
(§4) Preparation of enzyme activity reaction buffer: SBL buffer: PBS pH 7.4, 0.01% (v/v) Triton X-100; MBL buffer: 50 Mm HEPES in PBS pH 7.2, 1 μM ZnSO4, 1 μg/mL BSA, 0.010% v/v Triton X-100
(§5) a) The compound to be tested and buffer were taken out and warmed to room temperature.
(§6) b) Each compound was diluted with DMSO and buffer to the initial experimental concentration (Table 2), and then the compound was diluted 3-fold for a total of 10 concentrations.
(§7) c) Diluted compounds were added to wells 1 to 20 of a 384-well black plate at 2 replicate wells per concentration, 5 μL per well. 5 µL of DMSO was added to wells 21 to 24.
(§8) d) Each enzyme was diluted to the experimental concentration (Table 2) in SBL and MBL buffers, and finally 35 μL/well was added, with a total of 22 wells. 35 μL buffer was added to wells 23 to 24. Wells 21 to well 22 served as the maximum test values (Max), while wells 23 to 24 were designated as the minimum test values (Min).
(§9) e) The 384-well plate was centrifuged quickly and incubated for 10 minutes at room temperature.
(§10) f) The antibiotic substrate FC5 was diluted in buffer to the experimental concentration of each enzyme (Table 2).
(§11) g) The incubated 384-well plate was taken out and FC-5 was added to wells […]. The 384-well plate was centrifuged rapidly and promptly transferred to a microplate reader for reading.
(§12) h) The fluorescence intensity was measured at 355 nm excitation light/460 nm emission light in the microplate reader, and the fluorescence intensity was measured every three minutes for a total of 10 measurements.
(§13) Initial velocity of enzyme reaction V: Subtract the background reading (Min wells) without enzyme from each fluorescence intensity reading, and then perform on a linear regression analysis on each compound concentration group. The slope is the initial velocity of enzyme reaction (V) at each compound concentration.
(§14) Dose-effect curve and IC50 calculation of compounds: The initial velocity of enzyme reaction under the effect of each concentration of compounds was subjected to nonlinear regression fitting. The IC50 (half-maximal inhibitory concentration) of each compound was calculated using the formula […] (Vi: the initial velocity of enzyme reaction at each compound concentration; V0: initial velocity of enzyme reaction without the compound (Max wells). The software used was Graphpad prism 8.

IMP-1 = molecular target: T2, IMP-1 (Serratia marcescens, UniProt P52699); assay: Enzyme activity test (FC5 fluorescent substrate), IMP-1; conditions: enzyme 20 pM, substrate FC5 15 μM
T2 construct: purchased GenScript Biotech Co., Ltd
Protocol: as §1, §2, §3, §4, §5, §6, §7, §8, §9, §10, §11, §12, §13, §14

VIM-1 = molecular target: T3, VIM-1 (Pseudomonas aeruginosa, UniProt A0A0F7KYQ8); assay: Enzyme activity test (FC5 fluorescent substrate), VIM-1; conditions: enzyme 70 pM, substrate FC5 10 μM
T3 construct: purchased GenScript Biotech Co., Ltd
Protocol: as §1, §2, §3, §4, §5, §6, §7, §8, §9, §10, §11, §12, §13, §14

VIM-2 = molecular target: T4, VIM-2 (Escherichia coli, UniProt Q5U7L7); assay: Enzyme activity test (FC5 fluorescent substrate), VIM-2; conditions: enzyme 25 pM, substrate FC5 20 μM
T4 construct: purchased GenScript Biotech Co., Ltd
Protocol: as §1, §2, §3, §4, §5, §6, §7, §8, §9, §10, §11, §12, §13, §14

OXA-10 = molecular target: T5, OXA-10 (Pseudomonas aeruginosa, UniProt P14489); assay: Enzyme activity test (FC5 fluorescent substrate), OXA-10; conditions: enzyme 350 pM, substrate FC5 50 μM
T5 construct: purchased GenScript Biotech Co., Ltd
Protocol: as §1, §2, §3, §4, §5, §6, §7, §8, §9, §10, §11, §12, §13, §14

[1] = test system: four classes of β-lactamase, A, B, C, and D; assay: Enzyme activity test, summary by β-lactamase class
Protocol: as §1, §2, §3, §4, §5, §6, §7
d) Each enzyme was diluted to the experimental concentration (Table 2) in SBL and MBL buffers, and finally 35 μL/well was added, with a total of 22 wells. 35 μL buffer was added to wells 23 to 24. […]
as §11, §12
(§15) Initial velocity of enzyme reaction V: Subtract the background reading (Min wells) without enzyme from each fluorescence intensity reading, and then perform on a linear regression analysis on each compound concentration group. […]

NDM-5 = NDM-5 (Klebsiella pneumoniae, UniProt C7C422, M154L/V88L); assay: Enzyme activity test (FC5 fluorescent substrate), NDM-5
Protocol: as §1, §2, §3, §4, §5, §6, §7, §8
e) The 384-well plate was centrifuged quickly and incubated for 10 minutes at room temperature. […]
as §11, §12, §15, §14

KPC-2 = molecular target: T6, KPC-2 (Klebsiella pneumoniae, UniProt Q9F663); assay: Enzyme activity test (FC5 fluorescent substrate), KPC-2; conditions: enzyme 45 pM, substrate FC5 25 μM
T6 construct: purchased GenScript Biotech Co., Ltd
Protocol: as §1, §2, §3, §4, §5, §6, §7, §8, §9, §10, §11, §12, §13, §14

CTX-M-15 = molecular target: T7, CTX-M-15 (Escherichia coli, UniProt Q9EXV5); assay: Enzyme activity test (FC5 fluorescent substrate), CTX-M-15; conditions: enzyme 45 pM, substrate FC5 50 μM
T7 construct: purchased GenScript Biotech Co., Ltd
Protocol: as §1, §2, §3, §4, §5, §6, §7, §8, §9, §10, §11, §12, §13, §14

Ampc = Ampc (UniProt P24735); assay: Enzyme activity test (FC5 fluorescent substrate), AmpC; conditions: enzyme 25 pM, substrate FC5 15 μM
Protocol: as §1, §2, §3, §4, §5, §6, §7, §8, §9, §10, §11, §12, §13, §14

OXA-48 = molecular target: T8, OXA-48 (Klebsiella pneumoniae, UniProt Q6XEC0); assay: Enzyme activity test (FC5 fluorescent substrate), OXA-48; conditions: enzyme 650 pM, substrate FC5 125 μM
T8 construct: purchased GenScript Biotech Co., Ltd
Protocol: as §1, §2, §3, §4, §5, §6, §7, §8, §9, §10, §11, §12, §13, §14

OXA-23 = molecular target: T9, OXA-23 (Acinetobacter baumannii, UniProt Q9L4P2); assay: Enzyme activity test (FC5 fluorescent substrate), OXA-23; conditions: enzyme 650 pM, substrate FC5 50 μM
T9 construct: purchased GenScript Biotech Co., Ltd
Protocol: as §1, §2, §3, §4, §5, §6, §7, §8, §9, §10, §11, §12, §13, §14

T5 sequence (P14489 20-266): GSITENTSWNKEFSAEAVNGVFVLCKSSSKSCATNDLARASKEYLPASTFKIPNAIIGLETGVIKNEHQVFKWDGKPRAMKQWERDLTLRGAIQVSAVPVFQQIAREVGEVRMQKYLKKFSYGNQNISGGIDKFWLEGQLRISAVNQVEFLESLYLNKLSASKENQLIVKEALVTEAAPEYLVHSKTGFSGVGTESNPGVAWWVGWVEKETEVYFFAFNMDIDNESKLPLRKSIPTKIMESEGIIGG
T1 sequence (C7C422 29-270 limits assumed): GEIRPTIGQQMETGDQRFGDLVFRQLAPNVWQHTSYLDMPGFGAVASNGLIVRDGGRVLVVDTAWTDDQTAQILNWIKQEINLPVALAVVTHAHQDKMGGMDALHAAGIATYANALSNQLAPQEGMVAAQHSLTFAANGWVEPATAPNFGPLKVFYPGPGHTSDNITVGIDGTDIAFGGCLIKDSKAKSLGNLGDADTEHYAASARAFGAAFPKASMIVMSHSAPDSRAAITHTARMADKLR
T6 sequence (Q9F663 25-293 limits assumed): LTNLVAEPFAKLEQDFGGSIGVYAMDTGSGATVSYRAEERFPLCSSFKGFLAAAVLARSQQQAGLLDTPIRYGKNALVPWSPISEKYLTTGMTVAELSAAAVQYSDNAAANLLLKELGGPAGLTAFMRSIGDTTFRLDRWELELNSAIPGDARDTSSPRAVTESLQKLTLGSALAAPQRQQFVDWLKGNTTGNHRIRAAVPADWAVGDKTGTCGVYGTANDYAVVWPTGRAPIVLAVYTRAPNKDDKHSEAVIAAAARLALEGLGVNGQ
T9 sequence (Q9L4P2 18-273): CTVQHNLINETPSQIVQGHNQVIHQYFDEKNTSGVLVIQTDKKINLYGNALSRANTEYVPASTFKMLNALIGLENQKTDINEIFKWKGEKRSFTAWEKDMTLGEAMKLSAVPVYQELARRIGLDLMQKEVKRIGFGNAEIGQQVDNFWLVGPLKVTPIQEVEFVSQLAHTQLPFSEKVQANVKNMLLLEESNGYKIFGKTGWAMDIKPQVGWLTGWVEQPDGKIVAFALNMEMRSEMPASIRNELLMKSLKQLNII
Chain of NDM-5 (C7C422 29-270 V88L/M154L): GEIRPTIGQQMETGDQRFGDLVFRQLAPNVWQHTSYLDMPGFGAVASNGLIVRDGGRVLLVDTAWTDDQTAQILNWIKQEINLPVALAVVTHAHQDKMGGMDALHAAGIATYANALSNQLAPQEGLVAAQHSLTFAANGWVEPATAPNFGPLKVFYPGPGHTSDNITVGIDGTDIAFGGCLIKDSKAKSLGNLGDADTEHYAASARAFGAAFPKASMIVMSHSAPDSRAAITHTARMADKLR
T2 sequence (P52699 19-246 limits assumed): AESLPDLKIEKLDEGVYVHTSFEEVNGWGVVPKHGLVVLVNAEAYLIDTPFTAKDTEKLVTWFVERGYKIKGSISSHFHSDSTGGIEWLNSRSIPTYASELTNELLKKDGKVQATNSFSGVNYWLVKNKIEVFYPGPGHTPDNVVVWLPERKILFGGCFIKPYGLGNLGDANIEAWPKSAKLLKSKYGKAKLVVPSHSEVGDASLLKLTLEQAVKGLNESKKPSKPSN
T8 sequence (Q6XEC0 23-265 limits assumed): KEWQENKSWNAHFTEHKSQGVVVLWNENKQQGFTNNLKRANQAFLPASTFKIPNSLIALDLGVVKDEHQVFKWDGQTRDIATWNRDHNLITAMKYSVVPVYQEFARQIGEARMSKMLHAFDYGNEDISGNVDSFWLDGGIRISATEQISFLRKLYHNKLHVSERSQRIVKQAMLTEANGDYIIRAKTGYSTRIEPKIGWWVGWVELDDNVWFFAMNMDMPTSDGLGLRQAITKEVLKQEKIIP
T7 sequence (Q9EXV5 entry or part of it): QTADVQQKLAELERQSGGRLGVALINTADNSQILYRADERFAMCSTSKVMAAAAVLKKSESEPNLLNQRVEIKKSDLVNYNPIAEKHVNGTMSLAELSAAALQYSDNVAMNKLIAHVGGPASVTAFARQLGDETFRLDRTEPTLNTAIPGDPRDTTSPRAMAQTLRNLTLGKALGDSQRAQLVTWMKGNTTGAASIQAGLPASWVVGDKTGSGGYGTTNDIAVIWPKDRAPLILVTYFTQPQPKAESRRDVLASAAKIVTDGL

Structure (SMILES) | IC50 (NDM-1) [nM] | IC50 (IMP-1) [nM] | IC50 (VIM-1) [nM] | IC50 (VIM-2) [nM] | IC50 (OXA-10) [nM] | activity against class A and class C serine β-lactamases (SBL) ([1]; class A and class C SBL) | inhibitory effect on class B metal-zinc ion β-lactamase (MBL) ([1]; class B MBL) | inhibitory activity against the class D serine β-lactamase ([1]; class D SBL) | IC50 (NDM-5) [nM] | IC50 (KPC-2) [nM] | IC50 (CTX-M-15) [nM] | IC50 (Ampc) [nM] | IC50 (OXA-48) [nM] | IC50 (OXA-23) [nM]
NC(=O)[C@@H]1CC[C@@H]2CN1C(=O)N2OS(=O)(=O)O [Avibactam, reference compound] | > 10000 | > 10000 | > 10000 | > 10000 | 5760 | good activity | no inhibitory effect | low inhibitory activity | – | – | – | – | – | –
CSc1ccc2c(c1C(=O)O)OB(O)[C@@H]1C[C@H]21 [Compound 1] | 13.1 | < 5.1 | 1.5 | 0.1 | 10 | – | – | – | 15.3 | 1.2 | 1.3 | 17.2 | 0.2 | 0.8
CC(C)Sc1ccc2c(c1C(=O)O)OB(O)[C@@H]1C[C@H]21 [Compound 2] | 1.6 | < 5.1 | 0.1 | 0.1 | 6.8 | – | – | – | 2.9 | 3.3 | 3.2 | 42.7 | 0.4 | 0.6
O=C(O)c1c(S[C@H]2CCOC2)ccc2c1OB(O)[C@@H]1C[C@H]21 [Compound 4] | 1.9 | < 5.1 | < 0.05 | < 0.05 | 3.7 | – | – | – | 2.3 | 1.5 | 1.1 | 33.8 | 0.07 | 1.3
CN1CC(CCSc2ccc3c(c2C(=O)O)OB(O)[C@@H]2C[C@H]32)C1 [Compound 24-a] | 19.7 | < 5.1 | 7.7 | 6 | 39.4 | – | – | – | 14.8 | 3.4 | 3.1 | 63.8 | 1 | 1.4
